Test results taken from patent US10821118B2, “Oral transmucosal drug delivery system” (ABON PHARMACEUTICALS, LLC, priority 2012, dated 2020).
Converted amounts (≈) assume the structure as drawn.

Tests used:
[1] = Testosterone solubility in aqueous media (SSF) containing various CIAs; format: physicochemical; details: Simulated Saliva Fluid (SSF) containing CIA, thermodynamic from solid, Solubility of Testosterone in CIA Containing SSF
Protocol: Then the sample was filtered through a 0.45 μm polyvinylidene fluoride (PVDF) and the filtrate was analyzed by HPLC.

[2] = Solubility of testosterone in molten CIA systems
Protocol: In each solubility study, a molten solvent of single or combination CIA was prepared by heating and melting the CIA system using a water bath. […] The melt suspension was mixed for at least another 30 minutes while maintaining the CIA's molten state.

[3] = Solubility of crystalline drug in water; details: 37 °C
[4] = Heat of fusion of testosterone by DSC, molten / heat treated testosterone-agent samples; format: physicochemical; details: pure crystalline testosterone, at melting point of about 150° C.
Protocol: The heat of fusion (ΔHf) can be measured via Differential Scanning calorimetry (DSC).
Talc is an inert purified hydrated magnesium silicate with a melting point of 1500° C.

[5] = test system: Sex Hormone Binding Globulin (SHBG), albumin; details: cited from earlier work

Question: For `C[C@]12CC[C@H]3[C@@H](CCC4=CC(=O)CC[C@@]43C)[C@@H]1CC[C@@H]2O` [Testosterone], which solubility ([1]; aqueous with cosolvent or surfactant or cyclodextrin, SSF with 0.25% vitamin E-TPGS) is on record?
Answer: 60.8 µg/mL (≈ 211 µM)

Question: What about the solubility ([1]; aqueous with cosolvent or surfactant or cyclodextrin, SSF with 0.5% vitamin E-TPGS) of the same compound?
Answer: 90.1 µg/mL (≈ 312 µM)

Question: What about the solubility ([1]; aqueous with cosolvent or surfactant or cyclodextrin, SSF with 5% lauroyl polyoxyl-32 glycerides) of the same compound?
Answer: 358 µg/mL (≈ 1240 µM)

Question: What about the solubility ([1]; aqueous with cosolvent or surfactant or cyclodextrin, SSF with 5% oleic acid (oleic acid itself not soluble in SSF)) of the same compound?
Answer: 27 µg/mL (≈ 93.6 µM)

Question: What about the solubility ([1]; aqueous with cosolvent or surfactant or cyclodextrin, SSF with 5% polyethylene glycol) of the same compound?
Answer: 32 µg/mL (≈ 111 µM)

Question: And the solubility ([1]; aqueous with cosolvent or surfactant or cyclodextrin, SSF with 5% vitamin E-TPGS)?
Answer: 600 µg/mL (≈ 2080 µM)

Question: And the solubility ([1]; aqueous with cosolvent or surfactant or cyclodextrin, SSF with 10% lauroyl polyoxyl-32 glycerides)?
Answer: 694 µg/mL (≈ 2410 µM)

Question: What about the solubility ([1]; aqueous with cosolvent or surfactant or cyclodextrin, SSF with 10% oleic acid (oleic acid itself not soluble in SSF)) of the same compound?
Answer: 29 µg/mL (≈ 101 µM)

Question: And the solubility ([1]; aqueous with cosolvent or surfactant or cyclodextrin, SSF with 10% polyethylene glycol)?
Answer: 45 µg/mL (≈ 156 µM)

Question: And the solubility ([1]; aqueous with cosolvent or surfactant or cyclodextrin, SSF with 10% vitamin E-TPGS)?
Answer: 1210 µg/mL (≈ 4200 µM)

Question: And the solubility ([1]; aqueous with cosolvent or surfactant or cyclodextrin, SSF with 20% lauroyl polyoxyl-32 glycerides)?
Answer: 1350 µg/mL (≈ 4670 µM)

Question: And the solubility ([1]; aqueous with cosolvent or surfactant or cyclodextrin, SSF with 20% oleic acid (oleic acid itself not soluble in SSF))?
Answer: 29 µg/mL (≈ 101 µM)

Question: What about the solubility ([1]; aqueous with cosolvent or surfactant or cyclodextrin, SSF with 20% polyethylene glycol) of the same compound?
Answer: 69.4 µg/mL (≈ 241 µM)

Question: What about the solubility ([1]; aqueous with cosolvent or surfactant or cyclodextrin, SSF with 20% vitamin E-TPGS) of the same compound?
Answer: 2250 µg/mL (≈ 7800 µM)

Question: What about the solubility ([1]; aqueous with cosolvent or surfactant or cyclodextrin, saturated CIA solution, 0.34 g/mL of lauroyl polyoxyl-32 glycerides in SSF) of the same compound?
Answer: 2370 µg/mL (≈ 8220 µM)

Question: And the solubility ([1]; aqueous with cosolvent or surfactant or cyclodextrin, saturated CIA solution, 0.53 g of vitamin E TPGS in SSF)?
Answer: 4190 µg/mL (≈ 14500 µM)

Question: What about the solubility ([1]; aqueous with cosolvent or surfactant or cyclodextrin, saturated CIA solution, 1.73 g/mL of polyethylene glycol in SSF) of the same compound?
Answer: 1600 µg/mL (≈ 5550 µM)

Question: And the solubility ([1]; fassgf or other biorelevant, SSF with 0.25% polyethylene glycol)?
Answer: 28.1 µg/mL (≈ 97.4 µM)

Question: And the solubility ([1]; fassgf or other biorelevant, SSF with 0.5% polyethylene glycol)?
Answer: 27.8 µg/mL (≈ 96.4 µM)

Question: And the “Solubility of Testosterone in CIA, Theoretical” value (“Solubility … Theoretical” for short) ([2]; Table 24: PEG 8000 50% / oleic acid 50%)?
Answer: 117.1 mg/gm

Question: What about the “Solubility of Testosterone in CIA, Actual” value (from here on “Solubility … Actual”) ([2]; Table 24: molten PEG 8000 50% / oleic acid 50%) of the same compound?
Answer: 136.2 mg/gm

Question: What about the “Solubility … Actual” value ([2]; Table 24: molten PEG 8000 50% / vitamin E-TPGS 50%) of the same compound?
Answer: 137.9 mg/gm

Question: And the “Solubility … Actual” value ([2]; Table 24: molten oleic acid 50% / vitamin E-TPGS 50%)?
Answer: 123.6 mg/gm

Question: And the “Solubility … Actual” value ([2]; Table 24: molten oleic acid 100%)?
Answer: 58.3 mg/gm

Question: What about the “Solubility … Actual” value ([2]; Table 24: molten oleic acid 100%, listed as testosterone) of the same compound?
Answer: about 58.3 mg/gm

Question: What about the “Solubility … Actual” value ([2]; Table 24: molten polyethylene glycol 8000 100%) of the same compound?
Answer: 175.9 mg/gm

Question: And the “Solubility … Actual” value ([2]; Table 24: molten polyethylene glycol 8000 100%, listed as testosterone)?
Answer: about 175.9 mg/gm

Question: What about the “Solubility … Actual” value ([2]; Table 24: molten vitamin E-TPGS 100%) of the same compound?
Answer: 78.9 mg/gm

Question: What about the “Solubility … Actual” value ([2]; Table 24: molten vitamin E-TPGS 100%, listed as testosterone) of the same compound?
Answer: about 78.9 mg/gm

Question: What about the “Solubility … Theoretical” value ([2]; Table 25: PEG 8000 50% / lauroyl polyoxyl-32 glycerides 50%) of the same compound?
Answer: 130.0 mg/gm

Question: What about the “Solubility … Theoretical” value ([2]; Table 25: PEG 8000 50% / vitamin E TPGS 50%) of the same compound?
Answer: 130.6 mg/gm

Question: And the “Solubility … Actual” value ([2]; Table 25: molten PEG 8000 50% / lauroyl polyoxyl-32 glycerides 50%)?
Answer: 129.9 mg/gm

Question: And the “Solubility … Actual” value ([2]; Table 25: molten PEG 8000 50% / vitamin E TPGS 50%)?
Answer: 144.2 mg/gm

Question: And the “Solubility … Actual” value ([2]; Table 25: molten lauroyl polyoxyl-32 glycerides 100%)?
Answer: 81.6 mg/gm

Question: What about the “Solubility … Actual” value ([2]; Table 25: molten polyethylene glycol 8000 100%) of the same compound?
Answer: 178.4 mg/gm

Question: What about the “Solubility … Actual” value ([2]; Table 25: molten vitamin E TPGS 50% / lauroyl polyoxyl-32 glycerides 50%) of the same compound?
Answer: 114.6 mg/gm

Question: What about the “Solubility … Actual” value ([2]; Table 25: molten vitamin E TPGS 100%) of the same compound?
Answer: 82.7 mg/gm

Question: And the “Solubility … Theoretical” value ([2]; Table 25: vitamin E TPGS 50% / lauroyl polyoxyl-32 glycerides 50%)?
Answer: 82.2 mg/gm

Question: What about the “Solubility … Actual” value ([2]; […]) of the same compound?
Answer: 136.6 mg/gm

Question: What about the solubility [3] of the same compound?
Answer: ~27 µg/mL (≈ 93.6 µM)

Question: And the “heat of fusion (ΔHf)” value [4]?
Answer: about 102.4 J/g

Question: And the “protein bound in the blood circulation” value ([5]; blood circulation)?
Answer: 96%

Question: What about the “'free'” value ([5]; in males) of the same compound?
Answer: 2-3%

Question: And the “bound to Sex Hormone Binding Globulin (SHBG)” value ([5]; in males)?
Answer: about 44%

Question: And the bound to albumin ([5]; in males)?
Answer: 50%
